The text below walks through data of US11332476B2, “Fms-like tyrosine kinase inhibitors” (3SM BIOTRON INC., priority 2018, dated 2022).

SMILES strings stand for the structures.

The target in this test is T1, FLT3 (Homo sapiens, UniProt P36888).
T1 sequence (P36888 27-993): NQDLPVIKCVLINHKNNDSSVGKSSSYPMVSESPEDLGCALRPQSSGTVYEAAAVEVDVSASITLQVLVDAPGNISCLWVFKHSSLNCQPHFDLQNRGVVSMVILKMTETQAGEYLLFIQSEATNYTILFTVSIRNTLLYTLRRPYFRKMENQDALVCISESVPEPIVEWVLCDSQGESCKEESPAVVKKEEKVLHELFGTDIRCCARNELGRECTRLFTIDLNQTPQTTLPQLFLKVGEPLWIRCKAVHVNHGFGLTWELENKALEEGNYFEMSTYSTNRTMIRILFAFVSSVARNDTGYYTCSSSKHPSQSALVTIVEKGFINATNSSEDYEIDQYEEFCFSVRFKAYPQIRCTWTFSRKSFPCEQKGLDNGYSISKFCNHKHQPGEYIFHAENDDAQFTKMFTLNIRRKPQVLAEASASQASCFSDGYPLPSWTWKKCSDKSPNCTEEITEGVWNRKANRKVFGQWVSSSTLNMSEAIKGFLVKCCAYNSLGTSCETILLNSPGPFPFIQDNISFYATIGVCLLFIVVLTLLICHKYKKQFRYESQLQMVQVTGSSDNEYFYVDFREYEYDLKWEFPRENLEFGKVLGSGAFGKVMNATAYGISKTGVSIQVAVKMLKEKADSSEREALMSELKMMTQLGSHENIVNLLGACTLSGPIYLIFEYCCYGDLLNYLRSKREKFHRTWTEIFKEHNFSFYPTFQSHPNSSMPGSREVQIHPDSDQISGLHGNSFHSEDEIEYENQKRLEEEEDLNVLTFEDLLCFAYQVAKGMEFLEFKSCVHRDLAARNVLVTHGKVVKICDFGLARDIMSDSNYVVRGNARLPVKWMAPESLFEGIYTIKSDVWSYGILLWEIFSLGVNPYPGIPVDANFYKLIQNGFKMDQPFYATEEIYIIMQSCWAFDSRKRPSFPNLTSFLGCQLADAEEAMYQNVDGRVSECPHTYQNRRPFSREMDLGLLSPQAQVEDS
Put plainly: Inhibition of FLT3, 33P-ATP kinase assay with filter-binding detection. It is filed as biochemical. Particulars: 33P-ATP 10 uM, 2 hours at room temperature, filter-binding method. As to the method: Prepare indicated substrate in freshly prepared Base Reaction Buffer (20 mM Hepes (pH 7.5), 10 mM MgCl2, 1 mM EGTA, 0.02% Brij35, 0.02 mg/ml BSA, 0.1 mM Na3VO4, 2 mM DTT, 1% DMSO). Deliver any required cofactors to the substrate solution above. Deliver indicated kinase into the substrate solution and gently mix. The testing compounds in DMSO was added into the kinase reaction mixture by Acoustic technology (Echo550; nanoliter range) and incubated for 20 minutes at room temperature. Deliver 33P-ATP (specific activity […]) into the reaction mixture to initiate the reaction. Incubate kinase reaction for 2 hours at room temperature. Reactions are spotted onto P81 ion exchange paper. Detect kinase activity by filter-binding method.
Inhibition of FLT3 with 4-Quinolone Derivatives

Usually IC50 stands for the midpoint of a concentration-inhibition curve. Low values mean greater potency, high ones weaker potency. `NCCCNc1nc2ccccc2c2c(=O)c3cc(F)ccc3sc12` [compound 7707, 6-(3-aminopropylamino)-10-fluoro-12H-thiochromeno[2,3-c]quinolin-12-one] displayed an IC50 of less than 51 nM.
`O=c1c2cc(Cl)ccc2sc2c(NCCCNCCO)nc3ccccc3c12` [compound 7701, 10-chloro-6-(3-(2-hydroxyethylamino)propylamino)-12H-thiochromeno[2,3-c]quinolin-12-one] returned an IC50 of more than 1000 nM.
The molecule `O=c1c2cc(F)ccc2sc2c(N3CCNCC3)nc3ccccc3c12` [compound 7739, 10-fluoro-6-(piperazin-1-yl)-12H-thiochromeno[2,3-c]quinolin-12-one] gave an IC50 of 51 to 200 nM.
The value for `Nc1nc2ccccc2c2c(=O)c3cccc(Cl)c3sc12` [compound 7713, 6-Amino-8-chloro-12H-thiochromeno[2,3-c]quinolin-12-one] was more than 1000 nM.
For `O=c1c2cc(F)ccc2sc2c(NCCCO)nc3ccccc3c12` [compound 7729, 10-fluoro-6-(3-hydroxypropylamino)-12H-thiochromeno[2,3-c]quinolin-12-one] the value was more than 1000 nM; for `COc1cccc2c(=O)c3c(sc12)c(NCCN)nc1ccccc13` [compound 7244, 6-(2-aminoethylamino)-8-methoxy-12H-thiochromeno[2,3-c]quinolin-12-one], less than 51 nM.
In turn, `COc1ccc2nc(NCCCNCCO)c3sc4ccc(F)cc4c(=O)c3c2c1` [compound 7407, 10-fluoro-6-(3-(2-hydroxyethylamino)propylamino)-2-methoxy-12H-thiochromeno[2,3-c]quinolin-12-one] gave an IC50 of more than 1000 nM.
For `O=c1c2cc(F)ccc2sc2c(N3CCN(Cc4ccccc4)CC3)nc3ccccc3c12` [compound 7758, 6-(4-benzylpiperazin-1-yl)-10-fluoro-12H-thiochromeno[2,3-c]quinolin-12-one] the value was more than 1000 nM; for `O=c1c2cc(F)ccc2sc2c(NCCCNCCO)nc3ccc(F)cc3c12` [compound 7408, 2,10-difluoro-6-(3-(2-hydroxyethylamino)propylamino)-12H-thiochromeno[2,3-c]quinolin-12-one], more than 1000 nM.
For `CNCCCNc1nc2ccccc2c2c(=O)c3cc(OC)ccc3sc12` [compound 7734, 10-methoxy-6-(3-(methylamino)propylamino)-12H-thiochromeno[2,3-c]quinolin-12-one] the value was 501 to 1000 nM; for `Cc1ccc2sc3c(NCc4ccccc4)nc4ccccc4c3c(=O)c2c1` [compound 7233, 6-(benzylamino)-10-methyl-12H-thiochromeno[2,3-c]quinolin-12-one], more than 1000 nM.
The value for `COc1ccc2sc3c(NCCCN(C)C)nc4ccccc4c3c(=O)c2c1` [compound 7735, 6-(3-(dimethylamino)propylamino)-10-methoxy-12H-thiochromeno[2,3-c]quinolin-12-one] was more than 1000 nM.
The molecule `NCCCNc1nc2ccccc2c2c(=O)c3cccc(Cl)c3sc12` [compound 7715, 6-(3-aminopropylamino)-8-chloro-12H-thiochromeno[2,3-c]quinolin-12-one] registered an IC50 of less than 51 nM.
Turning to `O=c1c2cc(F)ccc2sc2c(NCc3cccnc3)nc3ccccc3c12` [compound 7748, 10-fluoro-6-(pyridin-3-ylmethylamino)-12H-thiochromeno[2,3-c]quinolin-12-one], the IC50 is more than 1000 nM.
`Cc1ccc2sc3c(NCCCN)nc4ccccc4c3c(=O)c2c1` [compound 7202, 6-(3-aminopropylamino)-10-methyl-12H-thiochromeno[2,3-c]quinolin-12-one] registered an IC50 of 51 to 200 nM.
The value for `O=c1c2cc(F)ccc2sc2c(NCCNc3ccccn3)nc3ccccc3c12` [compound 7765, 10-fluoro-6-((2-(pyridin-2-ylamino)ethyl)amino)-12H-thiochromeno[2,3-c]quinolin-12-one] was more than 1000 nM; that for `NCCNc1nc2ccccc2c2c(=O)c3cccc(F)c3sc12` [compound 7240, 6-(2-aminoethylamino)-8-fluoro-12H-thiochromeno[2,3-c]quinolin-12-one] was less than 51 nM.
The molecule `O=c1c2cccc(Cl)c2sc2c(NCCCNCCO)nc3ccccc3c12` [compound 7716, 8-chloro-6-(3-(2-hydroxyethylamino)propylamino)-12H-thiochromeno[2,3-c]quinolin-12-one] had an IC50 of 501 to 1000 nM.
`CCNc1nc2ccccc2c2c(=O)c3cc(Cl)ccc3sc12` [compound 7736, 10-chloro-6-(ethylamino)-12H-thiochromeno[2,3-c]quinolin-12-one] displayed an IC50 of more than 1000 nM.
With `O=c1c2cc(F)ccc2sc2c(NCCCNCCO)nc3ccc(Cl)cc3c12` [compound 7406, 2-chloro-10-fluoro-6-(3-(2-hydroxyethylamino)propylamino)-12H-thiochromeno[2,3-c]quinolin-12-one], the IC50 is more than 1000 nM.
